{
  "source": "paper PMC6934184",
  "about": "“Selective DNA-PKcs inhibition extends the therapeutic index of localized radiotherapy and chemotherapy” (The Journal of Clinical Investigation, 2019)",
  "key": {"[1]": {"tested_on": "Calu-6 subcutaneous xenografts", "assay": "subcutaneous Calu-6 xenograft with tumor-localized irradiation", "format": "in vivo, mouse", "details": "for mean tumor volume: NU5455 30 mg/kg oral single dose 30 min before 3.3 Gy", "protocol": "Subcutaneous non–small cell lung cancer xenografts were generated in CD-1 nude or BALB/c nude mice using A549 and Calu-6 cells, respectively, as previously described ([53]). When tumors reached 100 mm^3, mice were randomized into 4 groups (n = 7–9 per group) to receive (a) vehicle (orally) 30 minutes before mock radiation, (b) NU5455 (30 mg/kg orally) 30 minutes before mock radiation, (c) targeted tumor radiation at a single dose of 3.3 or 10 Gy, or (d) NU5455 (30 mg/kg orally) 30 minutes before 3.3 Gy or 10 Gy targeted tumor radiation. For targeted irradiation of subcutaneous tumors, anesthetized mice were restrained in a lead-shielded container with only the tumor exposed, and x-ray radiation applied using an RS320 irradiation system (Gulmay Medical) at a dose rate of 1.82 Gy/min.\nEstablishment of subcutaneous NSCLC xenograft models\nNSCLC subcutaneous xenografts were generated as previously described ( 53). Briefly, 6-8 week-old female BALB/c nude or CD-1 nude mice (Charles River Laboratories) were anaesthetized with 2% isoflurane (Zoetis), and 5 x 10^6 Calu-6 or A549 cells in 50% Matrigel (BD Biosciences), respectively, were subcutaneously injected into a single site on the back of the mouse. Mouse weights and tumor volumes (1/2 x length x width x depth) were measured three times a week.\nTargeted radiotherapy in subcutaneous and orthotopic NSCLC xenograft models When subcutaneous xenografts reached 100 mm3, mice were randomized into four groups (n = 7 - 11/group): (i) N-Methyl-2-pyrrolidone (NMP): 30% Encapsin : PEG400 (1:6:3 v/v/v) vehicle p.o. 30 minutes prior to mock radiation. (ii) NU5455 (30 mg/kg p.o.) 30 minutes prior to mock radiation. (iii) Targeted tumor radiation at a single dose of 3.3 or 10 Gy. (iv) NU5455 (30 mg/kg p.o.) 30 minutes prior to 3.3 Gy or 10 Gy targeted tumor radiation. For targeted irradiation of subcutaneous tumors, anaesthetized mice were restrained in a lead -shielded container with only the tumor exposed. X -ray radiation was applied using an RS320 irradiation system ( Gulmay Medical) at a dose rate of 1.82 Gy/minute. Three animals from each group were humanely killed at 5 and/or 24 hours after irradiation, and the tumors processed for immunohistochemistry (IHC). […]\nImmunohistochemistry in lung tumor xenografts and normal lung tissue\nTissues were fixed in 4% paraformaldehyde (PFA) and paraffin -embedded. Sections were stained using primary antibodies against γH2AX (JBW301, 1:1000, Millipore #05-636), 53BP1 (1:500, Cell Signaling #4937), and cleaved caspase 3 (CC3, 1:600, Cell Signaling #9661) and the EnVision G2 Doublestain System (Dako #K5361), according to the manufacturer’s instructions. One tissue section from each of 3 mice per group was examined, and the whole"}, "[2]": {"biological_target": "p110δ (Homo sapiens, UniProt O00329)", "assay": "SelectScreen Profiling IC50", "format": "biochemical", "protocol": "(§1) The in vitro kinase selectivity of NU5455 was determined using the SelectScreen Broad Assay Panel (Thermo Fisher Scientific) involving activity and binding assays (Supplemental Table 1). […] Class IA PI3Ks were measured using the p85α subunit.\n(§2) PI3K Kinase NU5455 IC (nM) Fold selectivity\n(§3) Supplemental Table 2. NU5455 potency and selectivity across the PI3K kinase family.\n(§4) µM NU5455 for DNA-PK versus other PIKK and PI3K family members was assessed by SelectScreen Profiling (Life Technologies). The\n(§5) ATP concentration was the Kmapp except for * where the ATP concentration was 10 μM (mean ± SEM, n=4-7)."}, "[3]": {"biological_target": "DNA-PK (Homo sapiens, UniProt P78527)", "assay": "SelectScreen Profiling IC50", "format": "biochemical", "details": "cell-free; ATP Km app; mean ± SEM, n=4-7; read-out: NU5455 IC50", "protocol": "as §1, §2, §3, §4, §5"}, "[4]": {"biological_target": "Vps34 (Homo sapiens, UniProt Q8NEB9)", "assay": "SelectScreen Profiling IC50", "format": "biochemical", "protocol": "as §1, §2, §3, §4, §5"}, "[5]": {"biological_target": "PI3K-C2γ (Homo sapiens, UniProt O75747)", "sequence (O75747 whole entry)": "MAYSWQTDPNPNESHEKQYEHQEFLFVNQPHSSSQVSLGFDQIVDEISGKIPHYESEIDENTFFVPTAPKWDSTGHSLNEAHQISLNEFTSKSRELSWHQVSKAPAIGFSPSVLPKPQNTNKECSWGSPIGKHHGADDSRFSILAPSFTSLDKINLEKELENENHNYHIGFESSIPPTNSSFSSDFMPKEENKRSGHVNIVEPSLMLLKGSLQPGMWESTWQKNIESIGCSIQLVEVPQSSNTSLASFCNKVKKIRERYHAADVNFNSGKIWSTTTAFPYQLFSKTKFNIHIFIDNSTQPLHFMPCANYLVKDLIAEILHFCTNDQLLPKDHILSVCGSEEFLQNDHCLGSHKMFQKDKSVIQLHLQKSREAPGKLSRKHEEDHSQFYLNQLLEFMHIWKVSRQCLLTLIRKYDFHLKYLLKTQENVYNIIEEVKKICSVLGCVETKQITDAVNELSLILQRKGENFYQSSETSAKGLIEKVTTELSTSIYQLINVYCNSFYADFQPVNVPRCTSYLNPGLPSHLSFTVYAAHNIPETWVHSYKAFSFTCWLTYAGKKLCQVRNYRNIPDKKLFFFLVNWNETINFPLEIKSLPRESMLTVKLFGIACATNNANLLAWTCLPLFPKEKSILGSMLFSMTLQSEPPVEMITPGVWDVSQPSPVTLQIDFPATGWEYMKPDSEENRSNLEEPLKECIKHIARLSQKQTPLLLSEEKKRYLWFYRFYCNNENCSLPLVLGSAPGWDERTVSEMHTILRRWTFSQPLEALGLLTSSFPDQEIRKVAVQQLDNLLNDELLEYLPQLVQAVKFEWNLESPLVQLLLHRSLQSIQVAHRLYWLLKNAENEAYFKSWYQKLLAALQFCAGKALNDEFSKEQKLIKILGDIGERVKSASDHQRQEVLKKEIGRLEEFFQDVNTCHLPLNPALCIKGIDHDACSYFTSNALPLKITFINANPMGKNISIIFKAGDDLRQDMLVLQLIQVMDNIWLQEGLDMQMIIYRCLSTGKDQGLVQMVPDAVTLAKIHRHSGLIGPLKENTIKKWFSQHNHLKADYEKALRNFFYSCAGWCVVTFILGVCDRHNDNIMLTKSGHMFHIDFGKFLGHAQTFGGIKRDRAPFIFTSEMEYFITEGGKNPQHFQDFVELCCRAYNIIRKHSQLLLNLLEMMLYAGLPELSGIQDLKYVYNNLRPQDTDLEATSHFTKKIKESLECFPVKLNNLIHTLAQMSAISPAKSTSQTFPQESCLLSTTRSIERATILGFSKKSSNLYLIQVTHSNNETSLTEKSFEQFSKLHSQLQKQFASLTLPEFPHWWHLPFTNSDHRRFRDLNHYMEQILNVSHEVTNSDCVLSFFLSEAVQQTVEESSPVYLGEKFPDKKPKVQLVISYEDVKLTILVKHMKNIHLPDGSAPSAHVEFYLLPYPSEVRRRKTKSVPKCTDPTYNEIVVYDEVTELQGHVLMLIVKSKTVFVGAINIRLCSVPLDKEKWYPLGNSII", "assay": "SelectScreen Profiling IC50", "format": "biochemical", "protocol": "as §1, §2, §3, §4, §5"}, "[6]": {"biological_target": "PI3K-C2α (Homo sapiens, UniProt O00443)", "assay": "SelectScreen Profiling IC50", "format": "biochemical", "protocol": "as §1, §2, §3, §4, §5"}, "[7]": {"biological_target": "PI3K-C2β (Homo sapiens, UniProt O00750)", "assay": "SelectScreen Profiling IC50", "format": "biochemical", "details": "ATP 10 μM", "protocol": "as §1, §2, §3, §4, §5"}, "[8]": {"biological_target": "p110β (Homo sapiens, UniProt P42338)", "assay": "SelectScreen Profiling IC50", "format": "biochemical", "protocol": "as §1, §2, §3, §4, §5"}, "[9]": {"biological_target": "mTOR (Homo sapiens, UniProt P42345)", "assay": "SelectScreen Profiling IC50", "format": "biochemical", "protocol": "as §1, §2, §3, §4, §5"}, "[10]": {"biological_target": "p110γ (Homo sapiens, UniProt P48736)", "assay": "SelectScreen Profiling IC50", "format": "biochemical", "protocol": "as §1, §2, §3, §4, §5"}, "[11]": {"biological_target": "ATR (Homo sapiens, UniProt Q13535)", "sequence (Q13535 whole entry)": "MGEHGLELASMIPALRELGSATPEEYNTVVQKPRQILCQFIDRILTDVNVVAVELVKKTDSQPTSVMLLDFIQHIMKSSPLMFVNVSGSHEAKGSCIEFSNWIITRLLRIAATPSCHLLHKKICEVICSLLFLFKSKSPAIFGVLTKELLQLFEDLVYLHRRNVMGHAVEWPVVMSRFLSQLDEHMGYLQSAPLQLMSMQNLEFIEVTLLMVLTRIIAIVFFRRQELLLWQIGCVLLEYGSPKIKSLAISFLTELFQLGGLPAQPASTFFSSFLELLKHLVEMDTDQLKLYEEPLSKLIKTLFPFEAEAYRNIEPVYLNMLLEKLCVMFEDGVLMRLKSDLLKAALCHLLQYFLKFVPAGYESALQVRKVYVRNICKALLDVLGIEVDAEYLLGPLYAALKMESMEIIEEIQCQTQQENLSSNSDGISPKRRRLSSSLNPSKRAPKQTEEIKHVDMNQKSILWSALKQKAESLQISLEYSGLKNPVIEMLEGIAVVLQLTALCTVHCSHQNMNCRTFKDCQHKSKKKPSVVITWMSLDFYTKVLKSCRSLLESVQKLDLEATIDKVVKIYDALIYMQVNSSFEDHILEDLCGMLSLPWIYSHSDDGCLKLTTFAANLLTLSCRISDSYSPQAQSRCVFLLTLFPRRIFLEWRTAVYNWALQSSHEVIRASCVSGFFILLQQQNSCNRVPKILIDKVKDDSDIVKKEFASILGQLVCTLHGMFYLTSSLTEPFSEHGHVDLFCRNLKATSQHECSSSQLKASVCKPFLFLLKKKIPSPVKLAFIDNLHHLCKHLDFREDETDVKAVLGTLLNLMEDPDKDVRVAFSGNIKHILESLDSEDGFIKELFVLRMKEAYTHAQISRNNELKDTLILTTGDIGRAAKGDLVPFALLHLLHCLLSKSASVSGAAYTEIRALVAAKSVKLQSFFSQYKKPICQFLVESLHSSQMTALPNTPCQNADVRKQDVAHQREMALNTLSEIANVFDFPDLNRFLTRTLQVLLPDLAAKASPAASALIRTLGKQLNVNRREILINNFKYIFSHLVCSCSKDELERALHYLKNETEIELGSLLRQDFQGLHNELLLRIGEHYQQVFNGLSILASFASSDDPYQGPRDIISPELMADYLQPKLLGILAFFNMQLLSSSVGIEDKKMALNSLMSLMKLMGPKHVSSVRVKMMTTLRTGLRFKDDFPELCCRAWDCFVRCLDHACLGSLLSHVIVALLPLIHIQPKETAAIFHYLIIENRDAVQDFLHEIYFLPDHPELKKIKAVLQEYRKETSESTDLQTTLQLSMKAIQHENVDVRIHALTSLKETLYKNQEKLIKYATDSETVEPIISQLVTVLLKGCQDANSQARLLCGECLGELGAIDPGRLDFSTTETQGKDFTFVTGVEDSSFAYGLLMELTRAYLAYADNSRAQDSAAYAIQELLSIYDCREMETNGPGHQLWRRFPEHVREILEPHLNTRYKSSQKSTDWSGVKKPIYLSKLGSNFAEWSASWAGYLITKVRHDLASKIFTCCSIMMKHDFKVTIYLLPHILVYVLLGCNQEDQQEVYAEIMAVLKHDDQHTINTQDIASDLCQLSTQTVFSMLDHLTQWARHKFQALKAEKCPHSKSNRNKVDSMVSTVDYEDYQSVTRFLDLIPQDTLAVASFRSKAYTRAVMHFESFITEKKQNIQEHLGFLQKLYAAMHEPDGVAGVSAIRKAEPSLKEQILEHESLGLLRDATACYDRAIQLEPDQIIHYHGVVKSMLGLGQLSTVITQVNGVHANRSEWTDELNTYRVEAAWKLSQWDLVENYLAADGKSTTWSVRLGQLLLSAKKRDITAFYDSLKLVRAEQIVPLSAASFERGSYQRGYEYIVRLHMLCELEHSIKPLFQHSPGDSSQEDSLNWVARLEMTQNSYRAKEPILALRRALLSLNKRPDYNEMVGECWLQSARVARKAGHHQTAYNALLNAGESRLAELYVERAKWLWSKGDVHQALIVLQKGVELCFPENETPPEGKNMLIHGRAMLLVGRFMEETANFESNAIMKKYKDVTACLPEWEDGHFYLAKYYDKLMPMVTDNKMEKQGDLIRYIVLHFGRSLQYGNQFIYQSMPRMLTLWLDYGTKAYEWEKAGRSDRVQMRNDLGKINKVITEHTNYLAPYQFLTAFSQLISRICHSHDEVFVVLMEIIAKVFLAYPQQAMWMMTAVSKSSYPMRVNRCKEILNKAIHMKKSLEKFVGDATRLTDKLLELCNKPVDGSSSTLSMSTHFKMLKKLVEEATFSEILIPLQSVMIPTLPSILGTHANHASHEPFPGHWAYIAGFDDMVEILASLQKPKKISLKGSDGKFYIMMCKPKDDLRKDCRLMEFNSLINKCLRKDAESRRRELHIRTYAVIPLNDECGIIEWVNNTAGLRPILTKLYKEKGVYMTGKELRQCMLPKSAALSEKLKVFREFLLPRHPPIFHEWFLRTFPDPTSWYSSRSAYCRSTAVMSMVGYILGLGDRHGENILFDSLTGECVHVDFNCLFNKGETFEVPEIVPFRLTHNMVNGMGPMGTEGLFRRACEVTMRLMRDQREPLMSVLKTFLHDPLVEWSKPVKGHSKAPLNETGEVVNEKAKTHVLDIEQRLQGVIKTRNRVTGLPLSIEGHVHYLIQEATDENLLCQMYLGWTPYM", "sequence (Q8WXE1 whole entry partner)": "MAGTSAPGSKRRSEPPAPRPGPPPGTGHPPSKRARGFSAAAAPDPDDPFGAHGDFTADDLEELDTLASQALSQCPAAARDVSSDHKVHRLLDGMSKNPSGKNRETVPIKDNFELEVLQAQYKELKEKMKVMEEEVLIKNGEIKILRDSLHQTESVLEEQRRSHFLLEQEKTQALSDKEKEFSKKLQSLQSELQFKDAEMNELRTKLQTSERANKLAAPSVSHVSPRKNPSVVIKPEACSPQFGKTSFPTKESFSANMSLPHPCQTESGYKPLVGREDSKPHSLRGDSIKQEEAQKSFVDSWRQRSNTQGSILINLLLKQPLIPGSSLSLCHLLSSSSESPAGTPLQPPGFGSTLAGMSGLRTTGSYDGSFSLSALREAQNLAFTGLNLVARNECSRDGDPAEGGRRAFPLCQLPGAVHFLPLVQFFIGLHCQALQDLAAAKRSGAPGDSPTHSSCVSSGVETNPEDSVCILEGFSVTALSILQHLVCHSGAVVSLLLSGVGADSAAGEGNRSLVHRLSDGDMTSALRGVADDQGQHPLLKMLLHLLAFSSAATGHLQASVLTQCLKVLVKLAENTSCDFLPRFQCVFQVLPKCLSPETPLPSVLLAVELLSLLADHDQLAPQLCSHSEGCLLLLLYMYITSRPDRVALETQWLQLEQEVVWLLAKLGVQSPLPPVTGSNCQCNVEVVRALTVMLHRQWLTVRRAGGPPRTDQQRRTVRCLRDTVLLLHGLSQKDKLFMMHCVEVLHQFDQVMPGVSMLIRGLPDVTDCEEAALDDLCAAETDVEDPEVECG", "assay": "SelectScreen Profiling IC50", "format": "biochemical", "protocol": "as §1, §2, §3, §4, §5"}, "[12]": {"biological_target": "ATM (Homo sapiens, UniProt Q13315)", "assay": "SelectScreen Profiling IC50", "format": "biochemical", "protocol": "as §1, §2, §3, §4, §5"}, "[13]": {"biological_target": "p110α (Homo sapiens, UniProt P42336)", "assay": "SelectScreen Profiling IC50", "format": "biochemical", "protocol": "as §1, §2, §3, §4, §5"}, "[14]": {"details": "cell-free, ATP Km app, p85α subunit, mean ± SEM, read-out: NU5455 IC50"}, "[15]": {"details": "cell-free, ATP Km app, mean ± SEM, read-out: NU5455 IC50"}, "[16]": {"details": "cell-free, ATP Km app, read-out: NU5455 IC50"}},
  "note": "“And” between values parts separate entries of the source, which are not always exact repeats. Equal entries are not always repeated.",
  "data": [
    {"smiles": "CN(C(=O)CN1CCOCC1)c1ccc2sc3c(-c4cccc5c(=O)cc(N6CC7CCC(C6)O7)oc45)cccc3c2c1", "note": "[NU5455]", "values": [
      {"measurement": "adverse effect or impact on body weight", "setting": "[1]; NU5455 30 mg/kg oral + 10 Gy", "value": "without any adverse effect or impact on body weight"},
      {"measurement": "antitumor response", "setting": "[1]; NU5455 30 mg/kg oral + 10 Gy", "value": "regression of Calu-6 tumors was induced"},
      {"measurement": "mean tumor volume", "setting": "[1]; day 0", "value": 104, "unit": "mm^3"},
      {"measurement": "mean tumor volume", "setting": "[1]; day 6", "value": 102, "unit": "mm^3"},
      {"measurement": "mice having no evidence of tumor at the end of the experiment", "setting": "[1]; day 38, NU5455 30 mg/kg oral + 10 Gy", "value": "3 of 6"},
      {"measurement": "radiation-induced γH2AX foci remaining, fold greater with concomitant NU5455", "setting": "[1]; tumor, 5 hours after 3.3 Gy, 30 mg/kg oral", "value": 3.0, "unit": "fold"},
      {"measurement": "IC50", "setting": "[2]; [14]", "value": "276 ± 22", "unit": "nM"},
      {"measurement": "Fold selectivity for DNA-PK", "setting": "[2]; versus p110δ (PI3Kδ)", "value": 33.7, "unit": "fold"},
      {"measurement": "IC50", "setting": "[3]", "value": "8.2 ± 2", "unit": "nM"},
      {"measurement": "IC50", "setting": "[4]; [15]", "value": "71 ± 19", "unit": "nM"},
      {"measurement": "Fold selectivity for DNA-PK", "setting": "[4]; versus Vps34", "value": 8.7, "unit": "fold"},
      {"measurement": "IC50", "setting": "[5]; [16]", "value": "> 10000", "unit": "nM"},
      {"measurement": "Fold selectivity for DNA-PK", "setting": "[5]; versus PI3K-C2γ", "value": "> 1220", "unit": "fold"},
      {"measurement": "IC50", "setting": "[6]; [16]", "value": "> 10000", "unit": "nM"},
      {"measurement": "Fold selectivity for DNA-PK", "setting": "[6]; versus PI3K-C2α", "value": "> 1220", "unit": "fold"},
      {"measurement": "IC50", "setting": "[7]; cell-free, mean ± SEM, read-out: NU5455 IC50", "value": "1960 ± 424", "unit": "nM"},
      {"measurement": "Fold selectivity for DNA-PK", "setting": "[7]; versus PI3K-C2β", "value": 239, "unit": "fold"},
      {"measurement": "IC50", "setting": "[8]; [14]", "value": "9320 ± 1240", "unit": "nM"},
      {"measurement": "Fold selectivity for DNA-PK", "setting": "[8]; versus p110β", "value": 1137, "unit": "fold"},
      {"measurement": "IC50", "setting": "[9]; [15]", "value": "4060 ± 1120", "unit": "nM"},
      {"measurement": "Fold selectivity for DNA-PK", "setting": "[9]; versus mTOR", "value": 495, "unit": "fold"},
      {"measurement": "IC50", "setting": "[10]; [16]", "value": "> 10000", "unit": "nM"},
      {"measurement": "Fold selectivity for DNA-PK", "setting": "[10]; versus p110γ", "value": "> 1220", "unit": "fold"},
      {"measurement": "IC50", "setting": "[11]; [16]", "value": "> 10000", "unit": "nM"},
      {"measurement": "Fold selectivity for DNA-PK", "setting": "[11]; versus ATR", "value": "> 1220 fold and > 1200 fold"},
      {"measurement": "IC50", "setting": "[12]; [16]", "value": "> 10000", "unit": "nM"},
      {"measurement": "Fold selectivity for DNA-PK", "setting": "[12]; versus ATM", "value": "> 1220 fold and > 1200 fold"},
      {"measurement": "IC50", "setting": "[13]; [14]", "value": "1870 ± 216", "unit": "nM"},
      {"measurement": "Fold selectivity for DNA-PK", "setting": "[13]; versus p110α (PI3Kα)", "value": 228, "unit": "fold"}
    ]}
  ]
}
